Data taken from patent US5157052A, “Method for inhibiting IgE production” (priority 1990, dated 1992).

Experiments:
[1] = test system: IgE; assay: Inhibition of de novo IgE synthesis after oral (intragastric) administration; assay type: in vivo, mouse (Balb/c female); settings: for IgE ± SD: 20 μg intragastric TID days 3 and 4
Description: (§1) ELISA (enzyme linked immunosorbant assay) measurements of IgE are as follows. About 5 μg of B1E3 antibody in 100 μl borate buffered saline (pH8.5) is added to wells of a NuncImmulon II 96 well plate (DiRuscio & Assoc., St. Louis, Mo.) at 37° C. for 90 minutes. The non-bound antibody is removed by flicking the plate. Unreacted sites on the plastic plate are blocked by adding about 200 μl of a 2% solution of newborn bovine serum (NBS) in PBS at 37° C. for 60 minutes. The standard IgE (or an unknown murine serum sample) is diluted to between about 4 ng/ml-256 ng/ml in Hanks-HS (20 mM Hepes, 2% NBS in Hanks Balanced Salt Solution, Gibco, Grand Island, N.Y.) or to 1/200 to 1/1000 in Hanks-HS respectively. 100 μl of standard (or unknown dilutions) are added in triplicate to the wells of the plate and allowed to absorb to B1E3 antibody at about 37° C. for 2-4 hours. The solution is removed by flicking the plate and each well is washed with about 0.5 ml 0.05% Tween 20-PBS 5 times. About 100 μl of biotinylated R1E4, called the primary antibody, diluted to 200 ng/ml is added to all wells and incubated at about 4° C. overnight. The solution is removed by flicking the plate and washed 5 times as described above. The developing reagent (Avidin and biotin-horse radish peroxidase) is incubated in 2% NBS in PBS at ambient temperature for 30 minutes, according to manufacturer's specifications (Vector Laboratories, Burlingame, Calif.). About 100 μl of developing reagent is added to each well and incubated at ambient temperature for 30 minutes. Colorimetric substrate for the developing reagent (ABTS peroxidase substrate system, KPL, Gaithersburg, Md.) is prepared by mixing equal volumes of solutions A and B and incubating at ambient temperature for 60 minutes. The developing reagent solution is removed by flicking the plate and washed 5 times as described above. About 100 μl of the mixture of substrates is added to each well and incubated at ambient temperature for 60 minutes. The optical density of each well is determined on a BioTek ELISA reader (Biotek Instruments, Inc., Burlington, Vermont) and the absorbance data transferred electronically to a DEC VAX mainframe computer. A standard curve is fitted to the IgE standard optical densities using straight line, linear regression statistical fits. IgE in the unknown serum samples is determined by comparing the optical density of the unknown to the standard curve and multiplying that number by the dilution of serum used in the assay.
Three groups of 4 Balb/c female mice per group are injected with both 100 μg FF1-4D5 antibody and 100 μg H∂A1 antibody (Groups B, C, and D). Another group of 4 Balb/c female mice is injected with PBS alone, unstimulated control Group A. One of the stimulated group were not given any prostaglandin control Group B. On day 3 and 4, individual groups receive an intragastric feeding TID of 0.25 ml of 20 μg of (±) methyl 11α,16-dihydroxy-16-methyl-9-oxoprosta-5Z,13E-dien-1-oate (Group C) or 20 μg of prostaglandin E2 (Group D) dissolved in PBS.

[2] = test system: IgE; assay: Secondary antigen-specific IgE response to TNP-KLH on alum; assay type: in vivo, mouse (Balb/c female); settings: 20 μg IP 3x daily days 24 and 25
Description: as §1
Stimulation of a secondary antigen-specific IgE response in mouse with haptenated antigen absorbed on alum is inhibited by (±) methyl 11α,16-dihydroxy-16-methyl-9-oxoprosta-5Z,13E-dien-1-oate. Three groups of 7 Balb/c female mice were treated as follows. […]

[3] = day -1 baseline before treatment

Structure (SMILES): CCCCC(C)(O)C/C=C/[C@H]1[C@H](O)CC(=O)[C@@H]1C/C=C\CCCC(=O)OC (mixture of isomers) [(±) methyl 11α,16-dihydroxy-16-methyl-9-oxoprosta-5Z,13E-dien-1-oate]
- inhibition of de novo IgE synthesis after oral administration ([1]; 20 μg intragastric TID): significantly inhibits de novo IgE synthesis after oral administration
- IgE ± SD ([1]; day 8 (stimulated control 5792, unstimulated 1015)): 1490 ± 525 ng/mL
- IgE ± SD ([1]; day 10 (stimulated control 1498)): 1131 ± 198 ng/mL
- IgE ± SD [1, 3]: 1115 ± 201 ng/mL
- secondary IgE response [2]: inhibited from the synthesis of a secondary IgE response
- IgE ± SD ([2]; day 28, p < .02 (boosted control 28,568)): 14,448 ± 4926 ng/ml
- IgE ± SD ([2]; day 30, p < .016 (boosted control 22,564)): 7564 ± 1528 ng/mL
- IgE ± SD [2, 3]: 1487 ± 138 ng/mL
